The results in this text go back to US8575340B2, “Purine derivatives and their pharmaceutical uses” (GlaxoSmithKline LLC, priority 2010, dated 2013).

Assay type in all cases: cell-based
In assay [1] the test system is Interferon-α. Briefly: Induction of Interferon-α using cryopreserved human PBMCs. The conditions noted are these: PBMC, 24 hours incubation, normalised to 1 μM resiquimod and DMSO, read-out: mean pEC50 for induction of Interferon-α (converted). The method, then: Assay for the Induction of Interferon-α using Cryopreserved Human Peripheral Blood Mononuclear Cells (PBMCs)
Compounds were dissolved in DMSO. Serial 2-fold dilutions with DMSO were prepared and 0.25 μL dispensed into 384-well clear Greiner polypropylene plates.
Blood samples of up to 200 mL were obtained from healthy human donors. Whole blood in 25 mL volumes was overlaid onto 15 mL Ficoll gradients in Leucosep tubes, and centrifuged at 1000 g for 20 minutes. Cells in the band at the plasma/histopaque interface were carefully removed and washed twice with PBS (centrifuged at 400 g for 5 min to harvest). The final pellet was resuspended in freezing medium (90% Heat-inactivated serum, 10% DMSO) to a cell concentration of 4×10^7 cells/mL. The resuspended cells were then cryopreserved (frozen) using a rate controlled freezer, and stored at −140° C. for up to 4 months.
Incubation and Assay for Interferon-α
Immediately prior to assay, vials of cryopreserved (frozen) PBMCs were thawed rapidly in a water bath at 37° C. A 1:10 dilution of the cells in trypan blue was prepared and counted. The PBMCs were then diluted in growth media [RPMI 1640 containing 10% fetal calf serum (invitrogen), Penicillin+[…] (Gibco cat. #25030-024, 1:50), L-Glutamine 2 mM, and 1000 units/mL recombinant human IFN-gamma (Preprotech catalogue #300-02)] to a density of 1×10^6 cells/mL, and 50 uL/well dispensed to 384-well clear Greiner polypropylene plates containing 0.25 μL DMSO or test compound in 0.25 μL DMSO. […] Plates were incubated for 24 hours at 37° C. in 5% CO2.
A multi-isoform immunoassay was used to quantify IFN-α in PBMC supernatants. Rabbit polyclonal antibody against human IFN-α (catalogue number 31101, Stratech Scientific) was diluted 1:10000 in assay buffer (RPMI 1640 containing 10% fetal calf serum, Invitrogen) and 20 μL was added to each well of an MSD (Meso-Scale Discovery) single small-spot 384-well GAR (goat anti-rabbit antibody coated) plate. The plate was incubated for 1 hour at room temperature with vigorous shaking. Following three washes with PBS, 20 μL of cell supernatant were added to each well of the plate. The plate was then incubated for 1 hour at room temperature with vigorous shaking. A pair of monoclonal antibodies to IFN-α (catalogue numbers 21100 and 21112, Stratech Scientific) were labelled with sulfo-TAG (MSD), diluted 1:1000 in assay buffer and 20 μL added to each well of the plate. The plate was further incubated for 1 hour at room temperature with vigorous shaking. Following three washes with PBS, 30 μL of ×2 T buffer (MSD) was added to each well and the plate was read on an MSD Sector 6000 plate reader.
Data were normalised to internal plate controls of 1 μM resiquimod (n=16) and DMSO (n=16). pEC50 values were derived by 4-parameter curve fit with IRLS in ActivityBase, from 11-point, two-fold serial dilution of test compounds.

The test system of assay [2] is IFN-α. Briefly: Induction of Interferon-α using fresh human PBMCs. The conditions noted are these: PBMC, two donors, 24 hours incubation, percentage of 2 μM resiquimod control, read-out: pEC50 for induction of IFN-α (converted). The method, then:
(§1) Assay for the Induction of Interferon-α and TNF-α using Fresh Human Peripheral Blood Mononuclear Cells (PBMCs)
(§2) Compounds were dissolved and serially diluted in DMSO to give 100× the required concentration range using a Biomek 2000. 1 μL of test compound was transferred into 96-well tissue culture plates using a Biomek FX. Each compound was assayed in duplicate for each donor. Each plate contained a dilution series of the TLR7/8 agonist resiquimod as standard and Column 11 contained 1 μL of 200 μM resiquimod (giving a 2 μM final concentration, used to define the approximate maximal response to resiquimod).
(§3) Blood samples from two human donors were collected into sodium heparin (10 U/mL). 25 mL volumes of whole blood were overlaid onto 15 mL Histopaque in Leucosep tubes which were centrifuged at 800 g for 20 min and the band at the plasma/histopaque interface carefully removed. The collected cells were centrifuged at 2500 rpm for 10 min and the pellet resuspended in 10 mL of media (RPMI 1640 (Low endotoxin) supplemented with 10% v/v foetal calf serum (FCS, low endotoxin) 100 U/mL penicillin G, 100 μg/mL streptomycin, 10 mM L-glutamine and 1× non-essential amino acids). A 1:20 dilution of the cells was prepared using trypan blue and the cells counted using a haemocytometer. The PBMCs were diluted to give a final concentration of 2×10^6/mL and 100 μL of this cells suspension was added to wells containing 1 μL of diluted test compound.
(§4) Incubation and Assays for Interferon-α and TNF-α
(§5) The cell preparations were incubated for 24 hours (37° C., 95% air, 5% CO2) after which a sample of the supernatant was removed using the Biomek FX and assayed for both IFN-α and TNF-α using the MSD (Mesoscale Discovery) electrochemiluminescence assay platform. The IFN-α assay was carried out similarly to that described above. […]
(§6) Cytokine released was expressed as a percentage of the 2 μM resiquimod control (column 11). This percentage was plotted against compound concentration and the pEC50 for the response determined by non-linear least squares curve fitting. […]

Assay [3] relates to TNF-α. As to the kind of experiment: Induction of TNF-α using fresh human PBMCs. The conditions noted are these: PBMC, two donors, 24 hours incubation, percentage of 2 μM resiquimod control, read-out: pEC50 for induction of TNF-α (converted). The method, then: as §1, §2, §3, §4, §5, §6

For `CCCCOc1nc(N)c2[nH]c(=O)n(CCCC3CCCN(CCO)C3)c2n1` (centres unmarked) [Example 4, 6-Amino-2-(butyloxy)-9-{3-[1-(2-hydroxyethyl)-3-piperidinyl]propyl}-7,9-dihydro-8H-purin-8-one], the EC50 in assay [1] was < 1.58 µM.

As for `CCCCOc1nc(N)c2[nH]c(=O)n(CC3CCCN(CCO)C3)c2n1` (centres unmarked) [Example 2, 6-Amino-2-(butyloxy)-9-{[1-(2-hydroxyethyl)-3-piperidinyl]methyl}-7,9-dihydro-8H-purin-8-one], the EC50 in assay [1] is < 1.58 µM; in assay [2], 0.0631 µM; in assay [3] it was 15.8 µM.

As for `CCCCNc1nc(N)c2[nH]c(=O)n(CCCN3CCN(CCO)CC3)c2n1` [Example 12, 6-Amino-2-(butylamino)-9-[3-[4-(2-hydroxyethyl)-1-piperazinyl]propyl]-7,9-dihydro-8H-purin-8-one], the EC50 in assay [1] is < 1.58 µM.

As to `CCCCOc1nc(N)c2[nH]c(=O)n(CCCCC3CCCN(CCO)C3)c2n1` (centres unmarked) [Example 5, 6-Amino-2-(butyloxy)-9-{4-[1-(2-hydroxyethyl)-3-piperidinyl]butyl}-7,9-dihydro-8H-purin-8-one], the EC50 in assay [1] is < 1.58 µM.

Regarding `CCCCNc1nc(N)c2[nH]c(=O)n(CCCCN3CCN(CCO)CC3)c2n1` [Example 14, 6-Amino-2-(butylamino)-9-{4-[4-(2-hydroxyethyl)-1-piperazinyl]butyl}-7,9-dihydro-8H-purin-8-one], the EC50 in assay [1] is < 1.58 µM.

With `CCCCOc1nc(N)c2[nH]c(=O)n(CCCN3CCN(CCO)CC3)c2n1` [Example 11, 6-Amino-2-(butyloxy)-9-{3-[4-(2-hydroxyethyl)-1-piperazinyl]propyl}-7,9-dihydro-8H-purin-8-one], the EC50 in assay [1] is < 1.58 µM.

As for `CCCCOc1nc(N)c2[nH]c(=O)n(CCCC3CCN(CCO)CC3)c2n1` [Example 8, 6-Amino-2-(butyloxy)-9-{3-[1-(2-hydroxyethyl)-4-piperidinyl]propyl}-7,9-dihydro-8H-purin-8-one], the EC50 in assay [1] was < 1.58 µM.

Regarding `CCCCOc1nc(N)c2[nH]c(=O)n(CCCCCC3CCN(CCO)CC3)c2n1` [Example 10, 6-Amino-2-(butyloxy)-9-{5-[1-(2-hydroxyethyl)-4-piperidinyl]pentyl}-7,9-dihydro-8H-purin-8-one], the EC50 was < 1.58 µM in assay [1], 0.000501 µM in assay [2] and 3.16 µM in assay [3].

Regarding `CCCCOc1nc(N)c2[nH]c(=O)n(CCCCCN3CCN(CCOCC)CC3)c2n1` [Example 17, 6-Amino-2-(butyloxy)-9-(5-{4-[2-(ethyloxy)ethyl]-1-piperazinyl}pentyl)-7,9-dihydro-8H-purin-8-one], the EC50 in assay [1] is < 1.58 µM; in assay [2] it was 0.0158 µM; in assay [3], 5.01 µM.

As to `CCCCOc1nc(N)c2[nH]c(=O)n(CCC3CCCN(CCO)C3)c2n1` (centres unmarked) [Example 3, 6-Amino-2-(butyloxy)-9-{2-[1-(2-hydroxyethyl)-3-piperidinyl]ethyl}-7,9-dihydro-8H-purin-8-one], in assay [1], the EC50 was < 1.58 µM.

For the compound `CCCCOc1nc(N)c2[nH]c(=O)n(CC3CCN(CCO)CC3)c2n1` [Example 6, 6-Amino-2-(butyloxy)-9-{[1-(2-hydroxyethyl)-4-piperidinyl]methyl}-7,9-dihydro-8H-purin-8-one], in assay [1], the EC50 is < 1.58 µM.

As to `CCCCOc1nc(N)c2[nH]c(=O)n(CCCCCN3CCN(CCOC)CC3)c2n1` [Example 16, 6-Amino-2-(butyloxy)-9-(5-{4-[2-(methyloxy)ethyl]-1-piperazinyl}pentyl)-7,9-dihydro-8H-purin-8-one], the EC50 in assay [1] is < 1.58 µM.

`CCCCOc1nc(N)c2[nH]c(=O)n(CCC3CCN(CCO)CC3)c2n1` [Example 7, 6-Amino-2-(butyloxy)-9-{2-[1-(2-hydroxyethyl)-4-piperidinyl]ethyl}-7,9-dihydro-8H-purin-8-one]: the EC50 in assay [1] is < 1.58 µM.

In the case of `CCCCOc1nc(N)c2[nH]c(=O)n(CCCCN3CCN(CCO)CC3)c2n1` [Example 13, 6-Amino-2-(butyloxy)-9-{4-[4-(2-hydroxyethyl)-1-piperazinyl]butyl}-7,9-dihydro-8H-purin-8-one], in assay [1], the EC50 is < 1.58 µM.

On to `CCCCOc1nc(N)c2[nH]c(=O)n(CCCC3CCCCN3CCO)c2n1` (centres unmarked) [Example 1, 6-Amino-2-(butyloxy)-9-[3-[1-(2-hydroxyethyl)-2-piperidinyl]propyl]-7,9-dihydro-8H-purin-8-one], for which the EC50 in assay [1] was < 1.58 µM.

As to `CCCCOc1nc(N)c2[nH]c(=O)n(CCCCCN3CCN(CCO)CC3)c2n1` [Example 15, 6-Amino-2-(butyloxy)-9-{5-[4-(2-hydroxyethyl)-1-piperazinyl]pentyl}-7,9-dihydro-8H-purin-8-one], in assay [1], the EC50 was < 1.58 µM.

Regarding `CCCCOc1nc(N)c2[nH]c(=O)n(CCCCC3CCN(CCO)CC3)c2n1` [Example 9, 6-Amino-2-(butyloxy)-9-{4-[1-(2-hydroxyethyl)-4-piperidinyl]butyl}-7,9-dihydro-8H-purin-8-one], the EC50 in assay [1] is < 1.58 µM.
